# Columns and labels:
# LoVo [1] = assay: Induction of apoptosis in human LoVo cells assessed as late apoptotic cells at 1 uM incubated for 24 hrs by Annexin-V-FITC-PI staining based flow cytometric analysis (reference value: 13.2 %); assay type: functional
# LoVo [2] = assay: Induction of apoptosis in human LoVo cells assessed as necrotic cells at 1 uM incubated for 24 hrs by Annexin-V-FITC-PI staining based flow cytometric analysis (reference value: 0.97 %); assay type: functional
# LoVo [3] = assay: Induction of apoptosis in human LoVo cells assessed as early apoptotic cells at 3 uM incubated for 24 hrs by Annexin-V-FITC-PI staining based flow cytometric analysis (reference value: 13.7 %); assay type: functional
# [4] = target: Serine/threonine-protein kinase mTOR (Homo sapiens, UniProt P42345); assay: Inhibition of mTOR (unknown origin) preincubated for 15 mins and measured after 60 mins by Z-LYTE screening
# [5] = Dissociation constant, pKa of compound; assay type: physicochemical
# [6] = Lipophilicity, logP of compound; assay type: physicochemical; settings: octanol/water
# [7] = Permeability across basolateral to apical side in human Caco-2 cells at 0.1 to 10 uM incubated for 120 mins by LC-MS/MS analysis; assay type: ADME, cell-based; settings: caco-2, 2 h, dose 0.1-10 µM
# [8] = Plasma protein binding in CD-1 mouse at 1 uM incubated for 5 hrs in HTD dialysis in the presence of verapamil by LC-MS/MS analysis relative to control; assay type: ADME, cell-free; settings: read-out: PPB (converted)
# [9] = Plasma protein binding in human at 1 uM incubated for 5 hrs in HTD dialysis in the presence of verapamil by LC-MS/MS analysis relative to control; assay type: ADME, cell-free; settings: read-out: PPB (converted)
# [10] = Drug metabolism in CD-1 mouse plasma by LC-MS/MS analysis; assay type: ADME, cell-free; settings: 5 h, 1 µM
# [11] = Stability in CD-1 mouse plasma assessed as half life by LC-MS/MS analysis; assay type: ADME, cell-free
# [12] = Stability in Sprague-Dawley rat plasma assessed as half life by LC-MS/MS analysis; assay type: ADME, cell-free
# [13] = Stability in human plasma assessed as half life by LC-MS/MS analysis; assay type: ADME, cell-free
# [14] = Drug metabolism in human liver cells at 2 uM incubated upto 120 mins by LC-MS/MS analysis; assay type: ADME, cell-based; settings: 2 h
# CYP2C8 = CYP2C8 (Homo sapiens, UniProt P10632); assay: Inhibition of recombinant human CYP2C8 assessed as residual activity at 1 uM in the presence of NADPH incubated for 60 mins by LC-MS/MS analysis relative to control; assay type: ADME; settings: read-out: Activity
# Cytochrome P450 3A4 = Cytochrome P450 3A4 (Homo sapiens, UniProt P08684); assay: Inhibition of CYP3A4 in human liver microsomes using midazolam as substrate and in presence of NADPH incubated for 60 mins by LC-MS/MS analysis; assay type: ADME, Microsome
# [15] = Induction of CYP3A4 mRNA expression in human primary hepatocyte isolated from DZM donor at 0.1 to 10 uM incubated for 72 hrs by real-time PCR analysis; assay type: ADME, cell-based; settings: hepatocytes, dose 0.1-10 µM
# [16] = Induction of CYP3A4 mRNA expression in human primary hepatocyte isolated from RAS donor at 0.1 to 10 uM incubated for 72 hrs by real-time PCR analysis; assay type: ADME, cell-based; settings: hepatocytes, dose 0.1-10 µM
# Hepatocyte [17] = assay: Cytotoxicity against human primary hepatocytes isolated from YND donor at 0.1 to 10 uM incubated for 72 hrs by cytotox-glo assay; assay type: toxicity, cell-based; settings: dose 0.1-10 µM
# Hepatocyte [18] = assay: Cytotoxicity against human primary hepatocytes isolated from RAS donor at 0.1 to 10 uM incubated for 72 hrs by cytotox-glo assay; assay type: toxicity, cell-based; settings: dose 0.1-10 µM
# [19] = Toxicity in Beagle dogs assessed as effect on respiratory system at 5 to 20 mg/kg, po administrated as single dose upto 24 hrs; assay type: organism-based, Canis lupus familiaris; settings: dog, in vivo, dose 5-20 mg/kg
# [20] = Toxicity in Sprague-Dawley rats assessed as effect on central nervous system at 10 to 40 mg/kg, po administrated as single dose upto 24 hrs; assay type: organism-based; settings: rat, in vivo, dose 10-40 mg/kg
# [21] = Drug distribution in Sprague-Dawley rat stomach at 5 mg/kg, IG administrated as single dose measured after 0.5 hrs by LC-MS/MS analysis; assay type: ADME, organism-based; settings: in vivo, po
# [22] = Drug distribution in Sprague-Dawley rat small intestine at 5 mg/kg, IG administrated as single dose measured after 0.5 hrs by LC-MS/MS analysis; assay type: ADME, organism-based; settings: in vivo, po
# [23] = Drug distribution in Sprague-Dawley rat liver at 5 mg/kg, IG administrated as single dose measured after 0.5 hrs by LC-MS/MS analysis; assay type: ADME, organism-based; settings: in vivo, po
# [24] = Drug distribution in Sprague-Dawley rat brain at 5 mg/kg, IG administrated as single dose measured after 0.5 hrs by LC-MS/MS analysis; assay type: ADME, organism-based; settings: po, read-out: Ct
# [25] = Drug excretion in Sprague-Dawley rat feces at 5 mg/kg, IG administrated for 48 hrs by LC-MS/MS analysis; assay type: ADME, organism-based; settings: in vivo, po
# JeKo-1 = assay: Antitumor activity against human JeKo-1 cells xenografted in female CB17 SCID mouse assessed as tumor growth inhibition at 30 mg/kg BID, po measured every 2 days for 24 days relative to control; assay type: functional; settings: JeKo-1, 576 h, time 24 day, read-out: TGI
# [26] = Toxicity in female CB17 SCID mouse xenografted with human JeKo-1 cells assessed as body weight at 40 mg/kg BID, po administered as 3 days on and 4 days off schedule for 24 days; assay type: organism-based; settings: in vivo, 576 h, time 24 day
# LoVo [27] = assay: Antitumor activity against human LoVo cells xenografted in female Balb/c nude mouse assessed as tumor growth inhibition at 40 mg/kg QD, po measured every 3 days for 25 days relative to control; assay type: functional; settings: 600 h, time 25 day, read-out: TGI
# LoVo [28] = assay: Antitumor activity against human LoVo cells xenografted in female Balb/c nude mouse assessed as tumor growth inhibition at 10 mg/kg QD, po measured every 3 days for 25 days relative to control; assay type: functional; settings: 600 h, time 25 day, read-out: TGI
# LoVo [29] = assay: Antitumor activity against human LoVo cells xenografted in female Balb/c nude mouse assessed as tumor growth inhibition at 20 mg/kg QD, po measured every 3 days for 25 days relative to control; assay type: functional; settings: 600 h, time 25 day, read-out: TGI
# [30] = Toxicity in female Balb/c nude mouse xenografted with human LoVo cells assessed as body weight at 40 mg/kg QD, po measured every 3 days for 25 days; assay type: organism-based; settings: in vivo, 600 h, time 25 day
# NCI-H1703 [31] = assay: Antitumor activity against human NCI-H1703 cells xenografted in female Balb/c nude mouse assessed as tumor growth inhibition at 40 mg/kg QD, po measured every 3 days for 28 days by vernier caliper based analysis relative to control; assay type: functional; settings: NCI-H1703, 672 h, time 28 day, read-out: TGI
# NCI-H1703 [32] = assay: Synergistic antitumor activity against human NCI-H1703 cells xenografted in female Balb/c nude mouse assessed as tumor growth inhibition co administered with Gemcitabine at 40 mg/kg QD, po administered as 3 days on and 4 days off schedule for 4 weeks relative to control; assay type: functional; settings: NCI-H1703, 672 h, time 28 day, read-out: TGI
# [33] = Toxicity in female Balb/c nude mouse xenografted with human NCI-H1703 cells assessed as body weight at 40 mg/kg QD, po administered as 3 days on and 4 days off schedule for 4 weeks; assay type: organism-based; settings: in vivo, 672 h, time 28 day
# Sequence of CYP2C8 (P10632 whole entry): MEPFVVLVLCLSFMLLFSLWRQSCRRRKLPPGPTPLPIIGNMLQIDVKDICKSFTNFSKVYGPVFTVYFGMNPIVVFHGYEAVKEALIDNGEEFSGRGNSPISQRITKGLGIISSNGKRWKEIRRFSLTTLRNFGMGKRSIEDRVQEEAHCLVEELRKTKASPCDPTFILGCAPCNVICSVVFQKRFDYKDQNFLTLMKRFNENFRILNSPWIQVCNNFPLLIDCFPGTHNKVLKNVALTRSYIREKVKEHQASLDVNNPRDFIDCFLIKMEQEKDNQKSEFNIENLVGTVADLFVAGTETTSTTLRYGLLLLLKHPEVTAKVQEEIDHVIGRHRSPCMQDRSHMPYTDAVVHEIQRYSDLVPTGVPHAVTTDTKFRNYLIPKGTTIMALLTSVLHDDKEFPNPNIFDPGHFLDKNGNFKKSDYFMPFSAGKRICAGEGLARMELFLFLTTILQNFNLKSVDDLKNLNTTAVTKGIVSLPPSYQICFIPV
# Sequence of Cytochrome P450 3A4 (P08684 whole entry): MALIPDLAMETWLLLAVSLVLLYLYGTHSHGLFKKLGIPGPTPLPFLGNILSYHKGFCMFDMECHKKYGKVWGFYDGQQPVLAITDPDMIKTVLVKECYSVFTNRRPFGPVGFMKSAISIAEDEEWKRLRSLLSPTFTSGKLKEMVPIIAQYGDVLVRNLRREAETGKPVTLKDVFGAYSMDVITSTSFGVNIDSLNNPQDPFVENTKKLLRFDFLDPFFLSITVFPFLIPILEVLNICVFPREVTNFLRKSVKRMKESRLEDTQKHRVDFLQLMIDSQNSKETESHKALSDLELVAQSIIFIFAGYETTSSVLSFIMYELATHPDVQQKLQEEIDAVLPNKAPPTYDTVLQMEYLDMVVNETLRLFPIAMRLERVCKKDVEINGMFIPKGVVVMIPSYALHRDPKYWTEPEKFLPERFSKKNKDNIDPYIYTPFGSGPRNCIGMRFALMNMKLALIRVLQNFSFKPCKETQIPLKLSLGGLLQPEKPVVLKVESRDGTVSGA
structure (smiles),measurement,setting,value
Cc1nn(-c2cccnc2)c(C)c1-c1cc(N2CC3CCC(C2)O3)nc2c(-c3ccn[nH]3)cnn12.O=C(O)/C=C/C(=O)O,Activity,LoVo [1],10%
same,Activity,LoVo [2],0.8%
same,Activity,LoVo [3],23.8%
same,IC50,[4],1.82 µM
same,pKa,[5],4.25
same,logP,[6],0.7
same,permeability,[7],Permeable
same,"fraction unbound at 5 h, 1 µM",[8],0.361
same,"fraction unbound at 5 h, 1 µM",[9],0.075
same,Drug metabolism,[10],metabolite_notdetected
same,half-life,[11],> 2 h
same,half-life,[12],> 2 h
same,half-life,[13],> 2 h
same,Drug metabolism,[14],metabolite_detected
same,"activity at 1 h, 1 µM",CYP2C8,16.3%
same,IC50,Cytochrome P450 3A4,48.4 µM
same,Activity,[15],Active
same,Activity,[16],Active
same,Activity,Hepatocyte [17],Non-toxic
same,Activity,Hepatocyte [18],Non-toxic
same,Activity,[19],Non-toxic
same,Activity,[20],Non-toxic
same,Drug uptake,[21],Active
same,Drug uptake,[22],Active
same,Drug uptake,[23],Active
same,concentration at 0.5 h,[24],4.47 ng/g
same,Drug excretion,[25],Active
same,inhibition in vivo at 30 mg/kg,JeKo-1,96.4%
same,Activity,[26],Non-toxic
same,inhibition in vivo at 40 mg/kg,LoVo [27],42.6%
same,inhibition in vivo at 10 mg/kg,LoVo [28],13.9%
same,inhibition in vivo at 20 mg/kg,LoVo [29],26.9%
same,Activity,[30],Non-toxic
same,inhibition in vivo at 40 mg/kg,NCI-H1703 [31],73.3%
same,inhibition in vivo at 40 mg/kg,NCI-H1703 [32],92.9%
same,Activity,[33],Non-toxic

# Source: ChEMBL document CHEMBL6103629 (J Med Chem, 2025)
